ChEMBL document CHEMBL1201862, “PubChem BioAssay data set” (2004)
Calls of active or inactive are those of the source.

Experiments:
[1] = target: Keap1/Nrf2 (Homo sapiens, UniProt Q14145); experiment: disruptors of Keap1 binding to Nrf2 peptide – biochemical, fluorescence polarization, cherry-picked samples, dose response (AID 588683)
[2] = target: E3 ubiquitin-protein ligase XIAP (Homo sapiens, UniProt P98170); experiment: Counter Screen using XIAP-Bir3 for Chemical Antagonists of Bir1/2 domains of IAP-family anti-apoptotic proteins. [Related pubchem assays (depositor defined):AID1018, AID1449, AID1514, AID1638, AID1749, AID1750, AID488957, AID488963]
[3] = target: Large T antigen (Simian virus 40, UniProt P03070); type: functional, Betapolyomavirus macacae;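 note: Confirmatory-stage PubChem screen for compounds that inhibit SV40 T antigen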
[4] = target: Genome polyprotein (dengue virus type 2, UniProt P29990); experiment: flavivirus cap methylation enzyme inhibition – biochemical, confirmation dose response, primary screen (AID 588689); type: functional
[5] = target: T1, Aminopeptidase N (Plasmodium falciparum FcB1/Columbia, UniProt O96935); experiment: malaria alanyl aminopeptidase activity blockers – biochemical, fluorogenic H-Leu-NHMec substrate, 1536-well (AID 1445); set-up: species or system Plasmodium falciparum 3D7, 3D7
T1 sequence (O96935 whole entry): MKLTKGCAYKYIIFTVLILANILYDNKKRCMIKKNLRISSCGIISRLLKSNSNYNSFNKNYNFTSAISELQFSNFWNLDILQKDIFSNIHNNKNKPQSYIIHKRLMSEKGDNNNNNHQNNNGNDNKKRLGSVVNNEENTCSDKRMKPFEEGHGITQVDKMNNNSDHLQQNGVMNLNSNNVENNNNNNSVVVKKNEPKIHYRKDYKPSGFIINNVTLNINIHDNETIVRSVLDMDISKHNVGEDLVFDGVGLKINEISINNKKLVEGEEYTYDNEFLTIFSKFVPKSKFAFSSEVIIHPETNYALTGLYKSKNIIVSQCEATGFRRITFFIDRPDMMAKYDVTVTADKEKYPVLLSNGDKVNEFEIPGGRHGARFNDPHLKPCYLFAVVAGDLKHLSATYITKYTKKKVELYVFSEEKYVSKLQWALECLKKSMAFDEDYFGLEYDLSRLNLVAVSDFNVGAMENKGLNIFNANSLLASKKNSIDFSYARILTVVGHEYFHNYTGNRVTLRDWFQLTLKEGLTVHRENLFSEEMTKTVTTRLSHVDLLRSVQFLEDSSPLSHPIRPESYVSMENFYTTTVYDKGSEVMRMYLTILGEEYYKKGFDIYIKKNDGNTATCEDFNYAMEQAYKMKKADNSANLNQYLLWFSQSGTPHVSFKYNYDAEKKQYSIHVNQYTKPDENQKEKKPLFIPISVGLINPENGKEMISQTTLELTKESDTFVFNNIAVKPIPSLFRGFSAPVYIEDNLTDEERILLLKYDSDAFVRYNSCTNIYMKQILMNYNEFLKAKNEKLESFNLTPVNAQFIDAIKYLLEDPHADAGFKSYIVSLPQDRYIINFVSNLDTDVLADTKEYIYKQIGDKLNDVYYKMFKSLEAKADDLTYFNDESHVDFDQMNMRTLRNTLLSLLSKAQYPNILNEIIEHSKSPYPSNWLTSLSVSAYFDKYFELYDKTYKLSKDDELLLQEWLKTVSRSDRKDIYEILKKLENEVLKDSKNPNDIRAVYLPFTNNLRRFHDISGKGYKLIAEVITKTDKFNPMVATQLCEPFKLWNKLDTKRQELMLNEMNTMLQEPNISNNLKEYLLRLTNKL

[6] = target: T2, Histone-lysine N-methyltransferase NSD2 (Homo sapiens, UniProt O96028); type: biochemical
T2 sequence (O96028 whole entry): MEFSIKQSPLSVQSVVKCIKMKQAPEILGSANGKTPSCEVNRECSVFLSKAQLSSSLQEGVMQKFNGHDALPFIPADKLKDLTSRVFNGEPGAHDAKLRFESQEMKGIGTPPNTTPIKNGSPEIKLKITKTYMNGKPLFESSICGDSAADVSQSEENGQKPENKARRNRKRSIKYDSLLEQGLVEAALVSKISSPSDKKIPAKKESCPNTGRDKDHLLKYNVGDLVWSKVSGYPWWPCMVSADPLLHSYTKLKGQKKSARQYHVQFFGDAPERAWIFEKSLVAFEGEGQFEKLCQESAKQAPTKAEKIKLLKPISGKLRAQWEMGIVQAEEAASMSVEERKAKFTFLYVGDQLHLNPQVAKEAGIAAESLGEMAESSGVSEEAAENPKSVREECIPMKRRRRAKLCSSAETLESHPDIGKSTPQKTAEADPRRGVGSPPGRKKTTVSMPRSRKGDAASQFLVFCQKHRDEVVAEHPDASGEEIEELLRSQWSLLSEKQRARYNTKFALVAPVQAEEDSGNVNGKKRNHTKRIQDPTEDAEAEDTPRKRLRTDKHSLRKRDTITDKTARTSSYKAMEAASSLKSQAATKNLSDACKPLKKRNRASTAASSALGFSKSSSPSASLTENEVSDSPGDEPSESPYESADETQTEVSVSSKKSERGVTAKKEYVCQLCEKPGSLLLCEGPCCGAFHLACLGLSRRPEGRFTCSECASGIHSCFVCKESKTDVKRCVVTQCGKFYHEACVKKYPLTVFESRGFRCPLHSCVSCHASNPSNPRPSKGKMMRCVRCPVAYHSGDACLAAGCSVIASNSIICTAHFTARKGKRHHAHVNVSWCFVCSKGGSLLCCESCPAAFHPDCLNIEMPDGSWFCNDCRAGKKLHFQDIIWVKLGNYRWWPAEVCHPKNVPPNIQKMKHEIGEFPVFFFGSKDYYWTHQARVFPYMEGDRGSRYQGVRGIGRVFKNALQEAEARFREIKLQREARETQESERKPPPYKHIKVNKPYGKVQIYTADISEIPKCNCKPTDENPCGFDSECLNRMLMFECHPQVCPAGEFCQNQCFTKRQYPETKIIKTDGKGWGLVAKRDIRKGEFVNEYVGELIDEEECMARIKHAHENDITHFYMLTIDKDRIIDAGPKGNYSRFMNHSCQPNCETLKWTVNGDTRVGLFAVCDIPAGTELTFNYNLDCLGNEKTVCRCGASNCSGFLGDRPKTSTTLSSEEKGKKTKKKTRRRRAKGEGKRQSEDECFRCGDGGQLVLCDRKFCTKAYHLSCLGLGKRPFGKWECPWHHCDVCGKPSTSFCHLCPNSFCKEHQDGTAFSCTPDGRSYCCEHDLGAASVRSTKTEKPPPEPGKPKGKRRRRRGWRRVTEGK

[7] = target: Bifunctional protein GlmU (Mycobacterium tuberculosis, UniProt P9WMN3); experiment: Inhibitors of Mycobacterial Glucosamine-1-phosphate acetyl transferase (GlmU). Secondary screen.; set-up: species or system Mycobacterium tuberculosis H37Rv
[8] = test system: Vero; experiment: cells; type: functional; conditions: Chlorocebus sabaeus
[9] = target: Paired box protein Pax-8 (Homo sapiens, UniProt Q06710); experiment: PAX8 transcriptional activity inhibition in RMG-I – RMG-I cells, luciferase, cherry-pick, dose response (AID 687027); type: functional, cell-based;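 note: luciferase reporter driven by Pax8 target thyroperoxidase promoter measured by SteadyGlo luminescence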
[10] = target: T3, Heat shock factor protein 1 (Mus musculus, UniProt P38532); experiment: decrease of HSF1-responsive luciferase luminescence – cell-based, NIH3T3, dose retest, confirmation (AID 2382); type: functional;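 note: NIH3T3 fibroblasts with HSF1-driven luciferase reporter stressed by proteasome inhibitor MG132; luminescence from HSF1-driven luciferase expression after 8 hours of MG132 stress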
T3 sequence (P38532 whole entry): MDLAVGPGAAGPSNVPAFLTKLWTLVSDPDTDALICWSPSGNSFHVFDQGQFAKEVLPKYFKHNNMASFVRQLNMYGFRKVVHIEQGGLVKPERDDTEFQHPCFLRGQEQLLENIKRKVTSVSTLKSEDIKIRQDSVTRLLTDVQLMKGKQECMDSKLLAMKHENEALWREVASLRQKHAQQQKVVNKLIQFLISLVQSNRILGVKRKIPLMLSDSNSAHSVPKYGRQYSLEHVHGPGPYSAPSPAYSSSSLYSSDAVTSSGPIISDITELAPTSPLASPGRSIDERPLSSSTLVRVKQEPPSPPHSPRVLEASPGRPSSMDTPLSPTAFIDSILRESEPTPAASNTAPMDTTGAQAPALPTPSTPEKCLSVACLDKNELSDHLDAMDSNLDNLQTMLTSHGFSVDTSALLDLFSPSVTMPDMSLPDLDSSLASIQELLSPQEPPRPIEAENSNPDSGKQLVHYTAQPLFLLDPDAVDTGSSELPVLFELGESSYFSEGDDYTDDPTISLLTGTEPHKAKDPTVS

[11] = target: E3 ubiquitin-protein ligase Mdm2 (Homo sapiens, UniProt Q00987); experiment: MDM2-luc reporter signal enhancers, multi-concentration potency testing, MDM2 ubiquitin-protein ligase inhibitor program, whole-cell format, luminescence detection, 384-well microplate (AID 1394); type: functional;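 note: MDM2 E3 inhibitors raise luminescence so EC50 is for signal enhancement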
[12] = target: T4, Tyrosine-protein phosphatase non-receptor type 7 (Homo sapiens, UniProt P35236); experiment: HePTP tyrosine phosphatase activity blockers – biochemical, absorbance, leukemia target, primary screen (AID 521); type: functional
T4 sequence (P35236 whole entry): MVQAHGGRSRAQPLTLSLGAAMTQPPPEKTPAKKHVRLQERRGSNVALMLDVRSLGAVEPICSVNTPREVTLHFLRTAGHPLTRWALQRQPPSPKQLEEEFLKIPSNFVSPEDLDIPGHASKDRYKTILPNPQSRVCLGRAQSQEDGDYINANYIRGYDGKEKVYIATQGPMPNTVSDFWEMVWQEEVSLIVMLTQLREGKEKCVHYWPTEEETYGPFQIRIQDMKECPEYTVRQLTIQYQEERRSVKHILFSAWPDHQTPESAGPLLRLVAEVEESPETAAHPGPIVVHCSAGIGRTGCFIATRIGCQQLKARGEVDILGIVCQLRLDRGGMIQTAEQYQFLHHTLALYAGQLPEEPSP

[13] = target: T5, Orexin receptor type 2 (Homo sapiens, UniProt O43614); experiment: Counterscreen assay for antagonists of the orexin 1 receptor (OX1R; HCRTR1): Homogeneous Time Resolved Fluorescence (HTRF)-based cell-based dose response assay for antagonists of the orexin 2 receptor (OX2R; HCRTR2), run by assay provider.; type: functional
T5 sequence (O43614 whole entry): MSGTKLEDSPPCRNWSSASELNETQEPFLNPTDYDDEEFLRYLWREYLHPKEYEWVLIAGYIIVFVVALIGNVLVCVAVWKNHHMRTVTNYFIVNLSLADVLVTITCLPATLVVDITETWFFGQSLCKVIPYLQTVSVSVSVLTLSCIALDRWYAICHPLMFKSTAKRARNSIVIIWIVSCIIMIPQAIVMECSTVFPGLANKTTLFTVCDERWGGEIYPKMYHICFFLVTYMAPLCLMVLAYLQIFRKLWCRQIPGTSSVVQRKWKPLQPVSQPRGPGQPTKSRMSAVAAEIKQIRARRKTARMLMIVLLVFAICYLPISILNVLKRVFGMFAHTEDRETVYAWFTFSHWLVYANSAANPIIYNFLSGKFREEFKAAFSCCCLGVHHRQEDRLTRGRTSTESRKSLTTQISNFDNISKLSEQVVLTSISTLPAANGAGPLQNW

[14] = test system: CHO-K1; experiment: (§1) Counterscreen for antagonists of the orexin 1 receptor (OX1R; HCRTR1): Homogeneous time resolved fluorescence (HTRF)-based cell-based dose response assay to identify antagonists of the parental CHO-K1 cell line. [Related pubchem assays (depositor defined):AID434989, AID435008, AID463079, AID485270, AID492963, AID492964, AID492965, AID493232, AID504699, AID504701]; type: functional; conditions: Cricetulus griseus
[15] = as §1, with “Fluorescence-based” for “Homogeneous time resolved fluorescence (HTRF)-based”, “cell-based high throughput” for “cell-based”, “CHO” for “CHO-K1”; type: functional
[16] = target: T6, Orexin/Hypocretin receptor type 1 (Homo sapiens, UniProt O43613); experiment: (§2) Fluorescence-based cell-based high throughput dose response assay for antagonists of the orexin 1 receptor (OX1R; HCRTR1). [Related pubchem assays (depositor defined):AID434989, AID435008, AID463079, AID485270, AID492963, AID492964, AID492965, AID493232, AID504717, AID504718]; type: functional
T6 sequence (O43613 whole entry): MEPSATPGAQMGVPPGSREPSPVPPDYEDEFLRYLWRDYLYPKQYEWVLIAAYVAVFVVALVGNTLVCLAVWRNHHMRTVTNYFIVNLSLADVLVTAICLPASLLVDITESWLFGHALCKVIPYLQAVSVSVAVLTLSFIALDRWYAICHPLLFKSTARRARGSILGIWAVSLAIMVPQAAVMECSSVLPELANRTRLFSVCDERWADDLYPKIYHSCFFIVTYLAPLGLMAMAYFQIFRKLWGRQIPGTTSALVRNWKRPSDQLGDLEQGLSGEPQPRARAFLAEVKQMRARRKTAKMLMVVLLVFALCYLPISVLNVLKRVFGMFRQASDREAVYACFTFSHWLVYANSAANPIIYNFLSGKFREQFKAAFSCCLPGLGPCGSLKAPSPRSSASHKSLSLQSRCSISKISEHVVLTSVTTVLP

[17] = target: Ubiquitin carboxyl-terminal hydrolase BAP1 (Homo sapiens, UniProt Q92560); experiment: inhibition of BAP1 ubiquitin hydrolase activity – biochemical, dose response (AID 714); type: functional
[18] = target: T5, Orexin receptor type 2; experiment: Counterscreen assay for antagonists of the orexin 1 receptor (OX1R; HCRTR1): Fluorescence-based cell-based dose response assay for antagonists of the orexin 2 receptor (OX2R; HCRTR2), run by assay provider.; type: functional
[19] = target: DNA dC->dU-editing enzyme APOBEC-3G (Homo sapiens, UniProt Q9HC16); experiment: Dose Response confirmation of small molecule APOBEC3G DNA Deaminase Inhibitors via a fluorescence-based single-stranded DNA deaminase assay. [Related pubchem assays (depositor defined):AID493012, AID493028]; type: functional
[20] = target: T6, Orexin/Hypocretin receptor type 1; experiment: as §2, with “Homogeneous Time Resolved Fluorescence (HTRF)-based” for “Fluorescence-based”; type: functional

Bifunctional protein GlmU, sequence (P9WMN3 whole entry): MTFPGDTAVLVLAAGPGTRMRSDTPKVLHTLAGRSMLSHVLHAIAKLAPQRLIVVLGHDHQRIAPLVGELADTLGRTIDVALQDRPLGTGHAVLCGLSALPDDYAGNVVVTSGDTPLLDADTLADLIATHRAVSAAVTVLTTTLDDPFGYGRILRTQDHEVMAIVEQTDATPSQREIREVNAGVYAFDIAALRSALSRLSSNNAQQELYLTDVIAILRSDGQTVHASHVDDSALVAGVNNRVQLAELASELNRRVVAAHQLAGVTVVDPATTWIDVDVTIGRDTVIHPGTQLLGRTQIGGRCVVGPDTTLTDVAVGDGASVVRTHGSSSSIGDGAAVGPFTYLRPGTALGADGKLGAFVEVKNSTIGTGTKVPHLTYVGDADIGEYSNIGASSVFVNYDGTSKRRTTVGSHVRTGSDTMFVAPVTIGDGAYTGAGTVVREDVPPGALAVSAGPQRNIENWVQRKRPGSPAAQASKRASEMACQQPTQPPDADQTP
Keap1/Nrf2, sequence (Q16236 whole entry): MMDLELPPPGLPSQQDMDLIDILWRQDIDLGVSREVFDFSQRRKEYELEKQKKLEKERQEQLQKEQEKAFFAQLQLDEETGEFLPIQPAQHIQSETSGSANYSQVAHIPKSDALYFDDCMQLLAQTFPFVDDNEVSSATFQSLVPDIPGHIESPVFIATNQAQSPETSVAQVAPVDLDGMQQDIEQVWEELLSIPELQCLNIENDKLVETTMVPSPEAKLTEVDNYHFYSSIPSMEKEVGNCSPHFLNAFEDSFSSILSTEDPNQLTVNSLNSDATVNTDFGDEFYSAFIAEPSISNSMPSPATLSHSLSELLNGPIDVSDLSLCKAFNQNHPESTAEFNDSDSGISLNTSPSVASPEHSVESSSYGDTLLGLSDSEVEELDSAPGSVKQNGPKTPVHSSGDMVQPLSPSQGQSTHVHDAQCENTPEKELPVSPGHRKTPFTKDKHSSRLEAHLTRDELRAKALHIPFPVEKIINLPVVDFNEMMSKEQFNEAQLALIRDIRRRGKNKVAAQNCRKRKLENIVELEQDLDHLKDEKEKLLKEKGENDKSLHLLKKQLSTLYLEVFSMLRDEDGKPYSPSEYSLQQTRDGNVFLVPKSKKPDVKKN
Keap1/Nrf2, sequence (Q14145 whole entry): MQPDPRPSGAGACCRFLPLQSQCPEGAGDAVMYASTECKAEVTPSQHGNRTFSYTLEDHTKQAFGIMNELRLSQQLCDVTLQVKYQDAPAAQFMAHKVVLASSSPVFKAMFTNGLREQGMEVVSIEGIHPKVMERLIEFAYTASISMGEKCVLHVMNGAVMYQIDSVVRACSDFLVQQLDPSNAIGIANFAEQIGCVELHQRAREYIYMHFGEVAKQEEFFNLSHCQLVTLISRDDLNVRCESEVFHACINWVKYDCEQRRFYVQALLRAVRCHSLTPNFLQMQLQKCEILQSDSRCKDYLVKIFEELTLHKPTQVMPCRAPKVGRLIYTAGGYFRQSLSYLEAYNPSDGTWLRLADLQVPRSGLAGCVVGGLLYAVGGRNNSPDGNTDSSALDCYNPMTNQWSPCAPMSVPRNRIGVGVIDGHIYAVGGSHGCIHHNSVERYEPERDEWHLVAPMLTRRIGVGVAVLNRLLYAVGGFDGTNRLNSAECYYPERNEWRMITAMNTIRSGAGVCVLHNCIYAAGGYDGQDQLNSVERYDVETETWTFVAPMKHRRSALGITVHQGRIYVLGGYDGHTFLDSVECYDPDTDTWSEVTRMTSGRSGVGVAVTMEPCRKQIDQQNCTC
Large T antigen, sequence (P03070 whole entry): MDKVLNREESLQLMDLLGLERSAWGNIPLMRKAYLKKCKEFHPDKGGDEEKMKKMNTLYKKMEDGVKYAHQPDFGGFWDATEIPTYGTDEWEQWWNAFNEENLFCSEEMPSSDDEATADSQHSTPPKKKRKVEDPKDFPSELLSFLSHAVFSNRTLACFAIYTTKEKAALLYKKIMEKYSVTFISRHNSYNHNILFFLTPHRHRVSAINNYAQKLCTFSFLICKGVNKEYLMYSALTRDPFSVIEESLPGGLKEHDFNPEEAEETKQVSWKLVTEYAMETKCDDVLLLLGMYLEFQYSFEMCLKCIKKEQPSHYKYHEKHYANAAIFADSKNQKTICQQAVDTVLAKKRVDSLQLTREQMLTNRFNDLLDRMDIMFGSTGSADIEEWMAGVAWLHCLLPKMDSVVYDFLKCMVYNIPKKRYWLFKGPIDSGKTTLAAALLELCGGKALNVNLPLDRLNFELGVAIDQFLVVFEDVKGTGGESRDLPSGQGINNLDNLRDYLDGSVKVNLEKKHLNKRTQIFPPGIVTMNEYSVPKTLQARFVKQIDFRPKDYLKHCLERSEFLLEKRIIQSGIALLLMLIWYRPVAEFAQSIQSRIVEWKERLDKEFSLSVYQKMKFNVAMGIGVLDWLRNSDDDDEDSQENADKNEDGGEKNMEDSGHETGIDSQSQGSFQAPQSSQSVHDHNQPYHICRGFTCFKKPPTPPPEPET
E3 ubiquitin-protein ligase XIAP, sequence (P98170 whole entry): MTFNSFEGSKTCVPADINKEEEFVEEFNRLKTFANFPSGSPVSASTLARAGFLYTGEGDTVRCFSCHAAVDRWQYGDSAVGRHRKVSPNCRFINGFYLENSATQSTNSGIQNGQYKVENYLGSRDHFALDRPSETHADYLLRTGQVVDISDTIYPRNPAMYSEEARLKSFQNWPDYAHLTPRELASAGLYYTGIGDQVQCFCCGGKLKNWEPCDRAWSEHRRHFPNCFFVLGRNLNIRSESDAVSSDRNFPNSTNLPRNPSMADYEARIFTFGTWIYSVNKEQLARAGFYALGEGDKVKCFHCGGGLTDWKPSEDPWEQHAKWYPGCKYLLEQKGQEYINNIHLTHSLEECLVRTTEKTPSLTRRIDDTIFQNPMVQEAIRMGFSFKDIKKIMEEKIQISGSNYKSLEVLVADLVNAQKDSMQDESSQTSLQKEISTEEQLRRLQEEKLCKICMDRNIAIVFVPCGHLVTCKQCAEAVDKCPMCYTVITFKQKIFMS
DNA dC->dU-editing enzyme APOBEC-3G, sequence (Q9HC16 whole entry): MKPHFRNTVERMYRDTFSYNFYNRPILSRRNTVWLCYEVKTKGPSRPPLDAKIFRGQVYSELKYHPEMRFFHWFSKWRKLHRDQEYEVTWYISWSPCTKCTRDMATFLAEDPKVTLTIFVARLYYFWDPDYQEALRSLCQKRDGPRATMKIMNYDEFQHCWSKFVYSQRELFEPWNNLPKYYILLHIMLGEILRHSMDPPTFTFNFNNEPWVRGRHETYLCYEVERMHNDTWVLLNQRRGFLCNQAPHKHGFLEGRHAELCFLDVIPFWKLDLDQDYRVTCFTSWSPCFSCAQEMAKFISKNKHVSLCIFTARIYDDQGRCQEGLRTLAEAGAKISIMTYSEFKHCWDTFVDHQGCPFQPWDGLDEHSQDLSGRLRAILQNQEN
Ubiquitin carboxyl-terminal hydrolase BAP1, sequence (Q92560 whole entry): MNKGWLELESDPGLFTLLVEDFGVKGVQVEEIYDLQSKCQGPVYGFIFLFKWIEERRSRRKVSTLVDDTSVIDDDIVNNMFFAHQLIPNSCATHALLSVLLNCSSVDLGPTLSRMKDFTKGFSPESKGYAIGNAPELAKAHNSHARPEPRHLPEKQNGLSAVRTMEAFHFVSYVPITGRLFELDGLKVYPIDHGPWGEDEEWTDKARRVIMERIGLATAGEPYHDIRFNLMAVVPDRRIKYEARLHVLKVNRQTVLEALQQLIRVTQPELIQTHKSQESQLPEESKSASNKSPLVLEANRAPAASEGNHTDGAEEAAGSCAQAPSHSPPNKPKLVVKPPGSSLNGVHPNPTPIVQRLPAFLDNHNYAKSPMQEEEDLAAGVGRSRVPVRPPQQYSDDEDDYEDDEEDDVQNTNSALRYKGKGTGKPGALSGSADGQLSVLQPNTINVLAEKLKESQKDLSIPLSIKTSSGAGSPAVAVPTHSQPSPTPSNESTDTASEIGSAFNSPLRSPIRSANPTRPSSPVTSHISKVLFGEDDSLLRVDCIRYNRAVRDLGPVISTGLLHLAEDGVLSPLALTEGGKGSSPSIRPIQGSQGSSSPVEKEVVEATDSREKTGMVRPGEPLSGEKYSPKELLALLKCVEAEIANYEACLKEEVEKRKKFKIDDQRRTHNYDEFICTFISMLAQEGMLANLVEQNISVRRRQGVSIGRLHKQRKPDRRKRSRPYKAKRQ
Paired box protein Pax-8, sequence (Q06710 whole entry): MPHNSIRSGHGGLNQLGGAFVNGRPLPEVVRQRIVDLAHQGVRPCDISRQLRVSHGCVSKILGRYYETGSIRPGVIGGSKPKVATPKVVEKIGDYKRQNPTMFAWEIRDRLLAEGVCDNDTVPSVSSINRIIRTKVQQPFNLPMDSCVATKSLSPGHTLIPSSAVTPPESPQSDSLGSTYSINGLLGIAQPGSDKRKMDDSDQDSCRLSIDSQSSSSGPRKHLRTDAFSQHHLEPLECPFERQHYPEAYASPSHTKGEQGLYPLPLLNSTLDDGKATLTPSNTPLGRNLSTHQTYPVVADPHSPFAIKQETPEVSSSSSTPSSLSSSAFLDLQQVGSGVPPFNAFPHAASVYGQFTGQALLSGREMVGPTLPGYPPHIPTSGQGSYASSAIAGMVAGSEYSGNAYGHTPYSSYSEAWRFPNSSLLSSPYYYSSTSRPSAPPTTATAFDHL
E3 ubiquitin-protein ligase Mdm2, sequence (Q00987 whole entry): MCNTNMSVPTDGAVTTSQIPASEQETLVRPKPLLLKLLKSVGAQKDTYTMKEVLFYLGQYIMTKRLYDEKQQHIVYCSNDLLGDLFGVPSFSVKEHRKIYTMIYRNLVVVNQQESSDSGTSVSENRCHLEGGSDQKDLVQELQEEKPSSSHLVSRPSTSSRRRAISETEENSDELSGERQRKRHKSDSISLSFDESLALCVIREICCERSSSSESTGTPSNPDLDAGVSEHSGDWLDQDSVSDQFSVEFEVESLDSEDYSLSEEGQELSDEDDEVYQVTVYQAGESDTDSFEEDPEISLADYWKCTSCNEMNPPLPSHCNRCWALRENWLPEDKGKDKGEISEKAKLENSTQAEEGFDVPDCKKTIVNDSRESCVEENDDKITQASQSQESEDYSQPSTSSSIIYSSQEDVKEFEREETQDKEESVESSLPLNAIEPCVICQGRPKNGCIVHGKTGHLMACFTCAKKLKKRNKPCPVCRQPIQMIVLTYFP

CC1=C(C#N)c2nc(N)c(C#N)c(C)c2/C1=C\c1ccc(-c2ccccc2C(=O)O)o1
AC50 [1]: 15.3 µM (active)
IC50 [2]: > 20 µM (inactive)
IC50 [3]: 86.6 µM (active)
IC50 [4]: 27.2 µM (active)
IC50 [5]: 52.2 µM (active)
AC50 [6]: > 20 µM (inactive)
IC50 [7]: 70.3 µM (active)

COc1cc(/C=C2\COC/C(=C\c3cc(OC)c(OC)c(OC)c3)C2=O)cc(OC)c1OC
CC50 [8]: 2.07 µM (active)
AC50 [9]: 1.56 µM (active)
EC50 [10]: > 195 µM (not active)
EC50 [11]: 182 µM (active)

O=C(NCc1cccc(C(F)(F)F)c1)C1CCCN(c2ncccn2)C1 (stereo not given)
IC50 [12]: > 100 µM (not active)

COC(=O)c1ccccc1NC(=O)c1sc(=S)n(C)c1N
IC50 [13]: > 50 µM (inactive)
IC50 [14]: > 66.2 µM (inactive)
IC50 [15]: > 49.8 µM (inactive)
IC50 [16]: 1.41 µM (active)
IC50 [17]: > 50 µM (not active)
IC50 [18]: 1.4 µM (active)
IC50 [19]: 67.7 µM (active)
IC50 [20]: 0.407 µM (active)
